Data set [1] deals with proteasome or luciferase activity in HL-60 cells. Put plainly: Screen of cell membrane permeabilization reagents in cell-based luminescent proteasome reaction. To be noted: 25,000 HL-60 cells, detergent 0.05 and 0.1% final, 22° C., LLVY-aminoluciferin. On the procedure: FIGS. 10A-C. Screen for cell membrane permeabilization reagents suitable to detect proteasomes in a cell-based luminescent reaction.
Other permeabilizing agents were screened for those suitable to detect proteasome activity in a cell-based assay (FIGS. 10A-C). Reagents containing low concentrations of various detergents (0.05 and 0.1% final) were prepared. 100 μl/well samples containing 25,000 HL-60 cells in complete medium were added to a 96-well plate and equilibrated at 37° C. The plate and reagents were cooled to 22° C. and an equal volume of reagent was added to each sample. The plate was shaken for 1 minute, then incubated at 22° C. Luminescence was then determined over time.

Data set [2] deals with proteasome activity in HL-60 cells. Put plainly: Cell-based luminescent proteasome assay in HL-60 cells. To be noted: 1.5 hour treatment (FIG. 2B).
In data set [3] the test system is untreated viable HL-60 or Jurkat cells. Put plainly: Protease retention: substrate cleavage in untreated viable cells. It is filed as cell-based. Further details: key: None denotes no statistical activity above control population.; (+) to (+++++) denotes the range of activity above control population from modest to robust; (+) to (+++++) denotes the range of activity above control population from modest to robust; (+) to (+++++) denotes the range of activity above control population from modest to robust; (+) to (+++++) denotes the range of activity above control population from modest to robust; (+) to (+++++) denotes the range of activity above control population from modest to robust. To be noted: proteolytic activity on substrate in untreated viable HL-60 or Jurkat cells, above control population; 15-30 min 37° C. On the procedure:
(§1) All substrates were solubilized in DMSO from 10 to 100 mM depending upon inherent solubility. Fluorescent substrates were diluted to 100 μM to 1 mM in 10 mM Hepes, pH 7.5 or matched cell culture medium with 10% serum and added in 1/10th volumes to lysed (freeze fractured, sonicated, or detergent) or untreated viable cells in white-walled, clear bottomed 96-well plates. HL-60 or Jurkat were used in the experimentation interchangeably because of their easily manipulated suspension phenotype. Plates were incubated for 15-30 minutes at 37° C. prior to measuring fluorescence by the CytoFluor II.
(§2) Luminescent substrates were added to a luciferin detection cake (Promega V859A) resuspended in 2 ml 10 mM Hepes, pH 7.5 to 500 μM. ⅕^th volume of the proluminescent reaction mixes were added to lysed (freeze fractured, sonicated, or detergent) or untreated viable cells in white-walled, clear bottomed 96-well plates. Again, HL-60 or Jurkat were used in the experimentation interchangeably. Plates were incubated at 37° C. in a MeCour' circulating heat block controlled by a Caron 2050 W exchange unit. Luminescence was measured between 15 and 30 minutes (signal steady state).
(§3) A broad variety of proteolytic substrates were examined in an effort to characterize potential substrate preferences for protease release or retention in compromised or viable cells (see Table 3). […] Non-blocked substrates (H- and the like) were examined to include the contribution of aminopeptidase activities. From this panel, at least three proteolytic profiles emerged: an aminopeptidase-like activity preferring unblocked Ala-Ala-Phe tripeptide, a proteosomal (chymotrypsin-like) activity measured by release of blocked Leu-Leu-Val-Tyr (SEQ ID NO:1) peptides, and an exceedingly labile activity by Gly-Phe, Gly-Ala, Phe-, Tyr- or Gly-Gly-Leu substrates. The latter activities were only measurable in viable, intact cells. Of further significance is that several fluorophores or proluminescent labels can be used to detect these activities, ultimately allowing for enhanced downstream multiplexing flexibility.

Data set [4] concerns lysed HL-60 or Jurkat cells. Nature of the data set: Protease release: substrate cleavage in lysed (compromised) cells. Further details: key: None denotes no statistical activity above control population.; (+) to (+++++) denotes the range of activity above control population from modest to robust; (+) to (+++++) denotes the range of activity above control population from modest to robust; (+) to (+++++) denotes the range of activity above control population from modest to robust; (+) to (+++++) denotes the range of activity above control population from modest to robust; (+) to (+++++) denotes the range of activity above control population from modest to robust. It is filed as cell-based. To be noted: proteolytic activity on substrate in lysed (freeze fractured, sonicated or detergent) HL-60 or Jurkat cells, above control population; 15-30 min 37° C. On the procedure: as §1, §2, §3

The subject of another data set is SK-MEL-28 cells. Put plainly: Multiplexed protease retention (Gly-Phe-AFC) and Caspase-Glo 3/7 assay. It is filed as cell-based. To be noted: serial dilutions, 5 hours. On the procedure:
(§4) SK-MEL-28 or ACHN cells were seeded into white-walled, clear bottomed 96 well plates at a density of 10,000 cells per well in 100 μl volumes and allowed to attach at 37° C. in 5% CO2 for a period of 2 hours. After attachment, 50 μl of medium was carefully removed and replaced with serial dilutions of either ionomycin or staurosporine in MEM+10% FBS. Medium only served as control. The plate was incubated for an additional 5 hours. A 1 mM solution of Gly-Phe-AFC was made in MEM and added to the wells in a 1/10th volume. Resulting fluorescence was measured using a CytoFluor II. Caspase-Glo™ 3/7 reagent was then added and luminescence measure using a BMG FLUOstar Optima.

A further data set has as its system ACHN cells. Described as above. It is filed as cell-based. Conditions: serial dilutions, 5 hours. On the procedure:
as §4

Marks after values point to notes of the source that are not given here. *1 amine or outer side, *2 acyl side, *3 side chain or, on linkers, in order; H or OH if unused. Where no end group is shown, it is not given here. [ ]: non-standard residue; d: D form. The star is where a group is joined. aminoluciferin = O=C(O)[C@H]1CSC(c2nc3ccc(N*)cc3s2)=N1; AFC = O=c1cc(C(F)(F)F)c2ccc(N*)cc2o1; AMC = Cc1cc(=O)oc2cc(N*)ccc12; Suc = O=C(CCC(=O)[*:2])[*:1]; code Z = not defined here; Cbz = O=C(OCc1ccccc1)*

Consider `C[C@H](CCC(=O)NCCC[N+](C)(C)CCCS(=O)(=O)[O-])[C@H]1CC[C@H]2[C@@H]3[C@H](O)C[C@@H]4C[C@H](O)CC[C@]4(C)[C@H]3C[C@H](O)[C@]12C` [CHAPS], for which the “effect on proteasome or luciferase activity” value in data set [1] is “negative effects”. With `CCCC[C@@H](C=O)NC(=O)[C@H](CC(C)C)NC(=O)OCc1ccccc1` [Calpeptin, calpeptin], the “effect on proteasome activity” value in data set [2] was “minimal effect”.

Consider `Cc1cc(=O)oc2cc(NC(=O)[C@@H](N)Cc3ccccc3)ccc12` [H-Phe-AMC], for which, in data set [3], the Retention result is on record as “+++”. The Release result in data set [4] is on record as “None”. The matching figures for `Cc1cc(=O)oc2cc(NC(=O)[C@@H](N)Cc3ccc(O)cc3)ccc12` [H-Tyr-AMC]: “++” and “None”. Turning to `CCCCCCCCCCCCOS(=O)(=O)[O-].[Na+]` [SDS], the “effect on proteasome or luciferase activity” value in data set [1] is reported as “negative effects”. For `C[C@H](CCC(=O)O)C[C@H](C)C[C@H](C)C(=O)/C=C(\O)[C@H](C)C[C@H](C)C/C=C/[C@@H](C)[C@@H](O)[C@@H](C)[C@@H](O)C[C@@H]1CC[C@@](C)([C@H]2CC[C@@](C)([C@@H](C)O)O2)O1` [ionomycin], in the data set on SK-MEL-28 cells, the “cytotoxicity profile (protease retention viability and caspase 3/7 activity)” value is reported as “necrotic-type profile”. For the molecule `CN[C@@H]1C[C@H]2O[C@@](C)([C@@H]1OC)n1c3ccccc3c3c4c(c5c6ccccc6n2c5c31)C(=O)NC4` [staurosporine], the figures for the “cytotoxicity profile (protease retention viability and caspase 3/7 activity)” value in the data set with ACHN cells and with SK-MEL-28 cells were “apoptotic profile” and “caspase activation (and therefore apoptosis induction) is evident”, respectively. “(Ala-Ala-Phe)2-R110 [(Ala-Ala-Phe) 2 R110]”: the Retention entry in data set [3] was “None”. Moreover, the Release result in data set [4] is listed as “++++”. The matching figures for (Gly-Phe)2-R110 [(Gly-Phe)2 R110]: “None” and “None”. In the same order, the values of Ac-Ala-Ala-Tyr-{AMC} are “None” and “None”.

As for Ala-Ala-Phe-aminoluciferin, the Retention result in data set [3] is “None”. In data set [4], the Release result is recorded as “++++”. The matching figures for Ala-Ala-Phe-{AMC}: “None” and “++++”. In the same order, the values of Cbz-Gly-Ala-Met-{AMC} are “None” and “None”. The matching figures for Cbz-Gly-Gly-Leu-{AMC}: “++*” and “None”.

On to Cbz-Phe-Arg-{AMC}, for which the Retention entry in data set [3] is given as “None^1”. Further, in data set [4], the Release result is listed as “None”. In the same order, the values of “Glutyl-Ala-Ala-Phe-AMC [Gluty-Ala-Ala-Phe-AMC]” are “None” and “None”. The matching figures for Gly-Phe-{AFC}: “++++” and “None”. Regarding H-Gly-Ala-{AMC}, in data set [3], the Retention entry is listed as “++”. Moreover, in data set [4], the Release entry is given as “None”.

On to H-Gly-Gly-{AMC}, for which, in data set [3], the Retention entry is on record as “None”. In addition, in data set [4], the Release result is listed as “None”.

On to H-Gly-Phe-{AMC}, for which, in data set [3], the Retention entry is listed as “++”. In addition, in data set [4], the Release entry was “None”. The matching figures for H-Pro-Phe-Arg-{AMC}: “None” and “None”. The matching figures for H-[dA]-Leu-Lys-{AMC}: “None” and “None”. For the molecule Ser-Tyr-{AFC}, the Retention entry in data set [3] was “None”. In addition, in data set [4], the Release result is reported as “None”.

With Suc-Ala-Ala-Phe-{AMC}, the Retention result in data set [3] was “None”. For the same molecule, the Release result in data set [4] is “None”.

“Suc-Arg-Pro-Phe-His-Leu-Leu-Val-Tyr-AMC (Suc-RPFHLLVY-{AMC}; SMILES Cc1cc(=O)oc2cc(NC(=O)[C@H](Cc3ccc(O)cc3)NC(=O)[C@@H](NC(=O)[C@H](CC(C)C)NC(=O)[C@H](CC(C)C)NC(=O)[C@H](Cc3c[nH]cn3)NC(=O)[C@H](Cc3ccccc3)NC(=O)[C@@H]3CCCN3C(=O)[C@H](CCCNC(=N)N)NC(=O)CCC(=O)O)C(C)C)ccc12) [S-R-P-F-H-L-L-V-Y-AMC]”: the Retention entry in data set [3] was “None”. The Release entry in data set [4] is on record as “None”. In the case of “Suc-Leu-Leu-Val-Tyr-AMC (Suc-LLVY-{AMC}; SMILES Cc1cc(=O)oc2cc(NC(=O)[C@H](Cc3ccc(O)cc3)NC(=O)[C@@H](NC(=O)[C@H](CC(C)C)NC(=O)[C@H](CC(C)C)NC(=O)CCC(=O)O)C(C)C)ccc12)”, the Retention entry in data set [3] is “None”. Moreover, in data set [4], the Release entry is “+”. As to Tergitol® NP-9, in data set [1], the “effect on proteasome or luciferase activity” value is recorded as “did not substantially effect”. As for Triton X-100, the “effect on proteasome or luciferase activity” value in data set [1] was “did not substantially effect”. Consider Tween®-20, for which the “effect on proteasome or luciferase activity” value in data set [1] is listed as “negative effects”. For “Z-Arg-Leu-Arg-Gly-Gly-AMC (RLRGG; Z N-terminal, AMC C-terminal)”, the Retention entry in data set [3] is reported as “None”. In data set [4], the Release result is given as “None”. With “Z-Leu-Arg-Gly-Gly-AMC (LRGG; Z N-terminal, AMC C-terminal)”, the Retention result in data set [3] is “None”. Further, the Release result in data set [4] is “None”.

Turning to “Z-Leu-Arg-aminoluciferin [Z-Leu-Arg-Aluc]”, in data set [3], the Retention entry is listed as “None”. Further, the Release result in data set [4] is recorded as “None”. For the molecule “Z-Leu-Leu-Val-Tyr-aminoluciferin ({code Z}-LLVY-aminoluciferin; reading uncertain; also: printed as Z-Leu-Leu-Val-Tyr-aminoluciferin) [Z-Leu-Leu-Val-Tyr-Aluc]”, the Retention result in data set [3] was “None”. For the same molecule, the Release entry in data set [4] is given as “++”. In the same order, the values of “Z-Phe-Arg-aminoluciferin [Z-Phe-Arg-Aluc]” are “None” and “None”.

Values taken from US20070048812A1, “Cell-based luminogenic and nonluminogenic proteasome assays” (priority 2005, published 2007).
